The source made the active and inactive calls. No cut-off for these calls is given here.
Tested on: Human immunodeficiency virus 1
Assay: Antiviral activity against HIV1 infected in human H9 cells assessed as inhibition of virus-induced cytopathic effect by tetrazolium-based method
Assay type: functional, organism-based

SMILES: CC(=O)NC(CCCC#CCC(Cl)Cl)CCCC#CCC(Cl)(Cl)Cl (configuration not stated)
- Activity: inactive

SMILES: CC(=O)NC(CCCC#CCC(Cl)(Cl)Cl)CCCC#CCC(Cl)(Cl)Cl
- Activity: inactive

Reference: ChEMBL document CHEMBL1150830, “Polychlorinated acetamides from the cyanobacterium Microcoleus lyngbyaceus” (J Nat Prod, 2001)
